One test addresses BRAF (Homo sapiens (Human), UniProt P15056). The test can be described thus: Z′-LYTE kinase inhibition assay (Invitrogen), BRAF. Type of test: biochemical. To be noted: 1 μM compound, Z′-LYTE method; read-out: % inhibition at 1 μM against BRAF.
The target in the next test is BRAF V600E (Homo sapiens (Human), UniProt P15056, V600E). The test can be described thus: Z′-LYTE kinase inhibition assay (Invitrogen), BRAF V600E. As to conditions: Z′-LYTE method; for inhibition at 1 µM: 1 μM compound, read-out: % inhibition at 1 μM against BRAF V600E; for IC50: read-out: IC50 against BRAF V600E. In kind it is biochemical. The gist of the method: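 FRET-based Z′-LYTE peptide phosphorylation format in 50 mM HEPES pH 7.5, 0.01% BRIJ-35, 10 mM MgCl2, 1 mM EGTA with ATP. Kinase reaction 60 min at room temperature, then protease development step 60 min at room temperature before fluorescence read. IC50 from compound concentration versus percent inhibition.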
Sequence of BRAF V600E (P15056 whole entry V600E): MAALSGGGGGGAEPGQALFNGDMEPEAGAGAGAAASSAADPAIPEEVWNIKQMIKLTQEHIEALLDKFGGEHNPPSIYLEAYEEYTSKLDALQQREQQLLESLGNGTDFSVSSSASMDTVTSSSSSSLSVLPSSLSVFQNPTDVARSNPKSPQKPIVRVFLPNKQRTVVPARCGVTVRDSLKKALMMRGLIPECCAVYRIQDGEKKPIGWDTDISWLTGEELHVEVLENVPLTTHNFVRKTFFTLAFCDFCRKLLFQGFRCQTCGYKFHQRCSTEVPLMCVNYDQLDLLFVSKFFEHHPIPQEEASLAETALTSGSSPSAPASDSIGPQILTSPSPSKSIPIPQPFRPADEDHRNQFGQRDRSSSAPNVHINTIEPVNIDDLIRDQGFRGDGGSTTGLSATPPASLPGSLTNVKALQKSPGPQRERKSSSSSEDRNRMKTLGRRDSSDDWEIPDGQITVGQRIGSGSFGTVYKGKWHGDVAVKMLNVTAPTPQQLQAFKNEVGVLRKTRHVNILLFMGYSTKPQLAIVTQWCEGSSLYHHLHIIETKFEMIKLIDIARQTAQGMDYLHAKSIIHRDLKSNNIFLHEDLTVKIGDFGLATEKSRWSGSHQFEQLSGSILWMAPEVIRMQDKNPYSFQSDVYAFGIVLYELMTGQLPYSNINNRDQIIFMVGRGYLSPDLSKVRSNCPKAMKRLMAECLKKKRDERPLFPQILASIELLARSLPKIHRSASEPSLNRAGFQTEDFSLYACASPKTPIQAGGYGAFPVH

The target of another test is KDR (VEGFR2) (Homo sapiens (Human), UniProt P35968). Description: Z′-LYTE kinase inhibition assay (Invitrogen), KDR. In kind it is biochemical. To be noted: Z′-LYTE method; for inhibition at 1 µM: 1 μM compound, read-out: % inhibition at 1 μM against KDR; for IC50: read-out: IC50 against KDR. The essentials: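 Z′-LYTE FRET assay: 10 μL reactions with 0.5–11.7 ng KDR and 2 μM Tyr 01 peptide in 50 mM HEPES pH 7.5, 10 mM MgCl2, 1 mM EGTA, 0.01% BRIJ-35, 1 h at room temperature. Development Reagent B (1:256) added for 60 min, fluorescence read; IC50 from concentration–inhibition curves.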
Sequence of KDR (VEGFR2) (P35968 20-1356): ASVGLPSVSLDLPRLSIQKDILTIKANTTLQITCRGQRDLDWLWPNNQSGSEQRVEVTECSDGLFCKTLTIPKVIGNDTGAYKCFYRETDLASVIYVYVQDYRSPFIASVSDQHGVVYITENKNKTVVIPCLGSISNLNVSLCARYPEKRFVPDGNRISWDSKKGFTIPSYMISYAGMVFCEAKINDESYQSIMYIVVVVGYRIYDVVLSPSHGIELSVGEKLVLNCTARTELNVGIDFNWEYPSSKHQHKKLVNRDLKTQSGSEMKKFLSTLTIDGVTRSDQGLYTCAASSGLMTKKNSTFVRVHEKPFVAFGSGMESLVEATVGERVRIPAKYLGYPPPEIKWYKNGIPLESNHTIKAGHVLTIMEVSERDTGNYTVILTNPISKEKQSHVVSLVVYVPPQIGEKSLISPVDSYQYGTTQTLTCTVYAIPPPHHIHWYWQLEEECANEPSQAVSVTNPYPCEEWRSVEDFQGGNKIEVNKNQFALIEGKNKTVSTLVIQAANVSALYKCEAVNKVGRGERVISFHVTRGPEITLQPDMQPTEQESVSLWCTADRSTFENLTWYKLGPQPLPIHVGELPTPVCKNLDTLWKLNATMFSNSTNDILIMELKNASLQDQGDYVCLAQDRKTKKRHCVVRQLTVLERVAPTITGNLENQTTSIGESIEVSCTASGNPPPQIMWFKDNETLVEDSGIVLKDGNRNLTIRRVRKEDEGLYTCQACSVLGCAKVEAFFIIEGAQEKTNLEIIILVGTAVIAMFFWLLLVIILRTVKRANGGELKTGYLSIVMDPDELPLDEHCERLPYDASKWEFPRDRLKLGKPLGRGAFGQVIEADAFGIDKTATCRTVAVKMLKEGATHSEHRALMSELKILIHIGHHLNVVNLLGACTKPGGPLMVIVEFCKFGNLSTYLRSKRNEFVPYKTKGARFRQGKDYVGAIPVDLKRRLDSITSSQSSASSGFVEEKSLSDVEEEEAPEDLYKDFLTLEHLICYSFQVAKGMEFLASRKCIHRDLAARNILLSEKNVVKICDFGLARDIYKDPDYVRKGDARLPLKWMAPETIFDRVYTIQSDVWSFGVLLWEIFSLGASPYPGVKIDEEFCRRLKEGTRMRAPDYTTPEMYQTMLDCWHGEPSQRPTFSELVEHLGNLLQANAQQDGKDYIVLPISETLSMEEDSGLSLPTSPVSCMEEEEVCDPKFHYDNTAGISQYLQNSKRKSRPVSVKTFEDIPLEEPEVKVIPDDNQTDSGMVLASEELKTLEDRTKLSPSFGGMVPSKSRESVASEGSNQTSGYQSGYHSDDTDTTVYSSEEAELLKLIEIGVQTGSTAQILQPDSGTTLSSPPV

For a further test, the system named is A375 cells. Description: Inhibition of cancer cell growth, MTT assay, A375. In kind it is cell-based. As to conditions: Homo sapiens, A-375, 72 h exposure. The gist of the method:
(§1)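 IC50 derived from percent growth inhibition versus concentration, tested in triplicate. Growth inhibition came from MTT read at 570 nm after 72 h drug exposure, relative to viable cells at dosing. Cells (about 4000/well, RPMI 1640 + 10% FBS) adhered 24 h before treatment; final DMSO 1%.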
(Formazan colour is commonly taken as a measure of viable cells.)

Another test deals with A549 cells. The test can be described thus: Inhibition of cancer cell growth, MTT assay, A549. Type of test: cell-based. As to conditions: Homo sapiens, A549, 72 h exposure. The essentials: as §1

Sequence of BRAF (P15056 whole entry): as the sequence (P15056 whole entry V600E) above, with E600V counted along it

What is called inhibition is the percentage by which the read-out fell short of the control. As a reminder, the IC50 is the midpoint of a concentration-inhibition curve. For `O=C(Nc1cccc(C(=O)c2ccc3ncc(-c4cccnc4)nc3c2)c1)Nc1ccc(Cl)c(C(F)(F)F)c1` [Compound C022, 1-(4-chloro-3-(trifluoromethyl)phenyl)-3-(3-(3-(pyridin-3-yl)quinoxaline-6-carbonyl)phenyl)urea], the inhibition at 1 µM is 70 to 89% at BRAF, over 89% on BRAF V600E and over 89% on KDR (VEGFR2). Besides, the IC50 was under 100 nM on BRAF V600E, under 100 nM on KDR (VEGFR2), 1000 to 5000 nM with A375 cells and over 5000 nM with A549 cells.

Consider `O=C(Nc1cccc(C(=O)c2ccc3ncc(N4CCOCC4)nc3c2)c1)Nc1ccc(Cl)c(C(F)(F)F)c1` [Compound C018, 1-(4-chloro-3-(trifluoromethyl)phenyl)-3-(3-(3-morpholinoquinoxaline-6-carbonyl)phenyl)urea], for which the inhibition at 1 µM at BRAF is 70 to 89%; at BRAF V600E, over 89%; at KDR (VEGFR2) it was over 89%. Besides, the IC50 at BRAF V600E is under 100 nM; at KDR (VEGFR2), under 100 nM; in the test on A375 cells, under 1000 nM; with A549 cells it was under 2000 nM.

For the origin of these results see patent US10759766B2, “Certain chemical entities, compositions, and methods” (NeuPharma, Inc., priority 2011, dated 2020).
